Experimental findings from patent US4258046A, “Pyrano-heterocycles and medicaments containing these compounds” (Hoechst Aktiengesellschaft, priority 1978, dated 1981) are described below.

The structures appear in SMILES notation. Structures can show the parent of a compound that is named as a salt.

Experiment [1] has as its system passive cutaneous anaphylaxis (PCA) in rats. Description: Inhibition of passive cutaneous anaphylaxis (PCA) in rats on intravenous treatment. It counts as in vivo, Sprague-Dawley rats. Conditions: i.v., antiserum dilution 1:16. As for the experimental part: (§1) The antiserum is directed against ovalbumine and is induced in rats by combined administration of ovalbumine with Bordetella pertussis as adjuvant and boostering with Nippostrongylus larvae. 72 hours after the intracutaneous administration of the antiserum, the intravenous injection of the antigen consisting of a mixture of each time 25 mg/kg of ovalbumine and Evans blue is effected, in order to trigger the cutaneous anaphylactic reaction. The compounds of the formula I or their salts are administered, if intravenously, directly before the injection of the ovalbumine-dyestuff mixture and if administered orally, 30 minutes before the administration of the ovalbumine-dyestuff mixture. 10 Minutes after the ovalbumine-dyestuff injection, the animals are sacrificed and the diameter of spreading of the dyestuff is measured in the hypodermis.
(§2) As comparative substance, the standard preparation di- sodium-chromoglycate(DSCG) is used.

For experiment [2] the test system is unchanged. The experiment can be described thus: Inhibition of passive cutaneous anaphylaxis (PCA) in rats on oral treatment. It counts as in vivo, Sprague-Dawley rats. The protocol: The compounds of the invention of the formula I and their salts have strong antiallergic properties and are well tolerated on intravenous as well as oral administration in the models of passive cutaneous anaphylaxis (P C A) to rats.
as §1, with “According to the method described by J. Goose and A. M. J. N. Blair, Immunology 16, 749 (1969) a P C A is made ready on Sprague-Dawley rats by intracutaneous administration of homologous antiserum, 0.1 ml of a dilution of 1:16 and 1:32 in both flanks. The antiserum” for “The antiserum”
as §2

Where [3] appears, read: 10.0 mg/kg, antiserum dilution 1:16.
[4] abbreviates: 10.0 mg/kg, antiserum dilution 1:32.

For `O=C(O)c1cc(=O)c2c(OCC(O)COc3cccc4oc(C(=O)O)cc(=O)c34)cccc2o1` [DSCG, di- sodium-chromoglycate, reference compound], the “% Inhibition against control” value came to 9% in experiment [1] (0.1 mg/kg); 34% in experiment [1] (0.3 mg/kg); 71% in experiment [1] (1.0 mg/kg); 0% in experiment [2] (setting [3]); 0% in experiment [2] (setting [4]); 5% in experiment [2] (30.0 mg/kg, antiserum dilution 1:16). Moreover, the “% Inhibition against control” value in experiment [2] (30.0 mg/kg, antiserum dilution 1:32) was 0%. Also, in experiment [2], the “activity when administered orally” value was “orally inactive”.

Consider `O=c1oc2c(c(O)c1[N+](=O)[O-])c(=O)n1c3c(cc(Cl)cc23)CCC1` [Example 24, 11-Chloro-7,8-dihydro-3-nitro-2,5-dioxo-2H,5H,9H-benzo-[ij]pyrano[2,3-b]quinolizine-4-ol-sodium salt], for which the “% Inhibition against control” value is listed as 12% in experiment [1] (0.1 mg/kg); 50% in experiment [1] (0.3 mg/kg); 89% in experiment [1] (1.0 mg/kg); 100% in experiment [1] (3.0 mg/kg); 22% in experiment [2] (0.3 mg/kg, antiserum dilution 1:16); 27% in experiment [2] (0.3 mg/kg, antiserum dilution 1:32). For the same compound, the “% Inhibition against control” value in experiment [2] (1.0 mg/kg, antiserum dilution 1:16) turned out to be 50%; in experiment [2] (1.0 mg/kg, antiserum dilution 1:32), 73%; in experiment [2] (3.0 mg/kg, antiserum dilution 1:16) it was 44%; in experiment [2] (3.0 mg/kg, antiserum dilution 1:32), 73%; in experiment [2] (setting [3]), 44%; in experiment [2] (setting [4]), 73%.

In the case of `Cn1c(=O)c2c(O)c([N+](=O)[O-])c(=O)oc2c2cc(Cl)ccc21` [Example 25, 9-Chloro-5,6-dihydro-6-methyl-3-nitro-2,5-dioxo-2H-pyrano[3,2-c]quinoline-4-ol], the “% Inhibition against control” value came to 44% in experiment [1] (0.01 mg/kg), 67% in experiment [1] (0.03 mg/kg) and 100% in experiment [1] (0.1 mg/kg).

On to `CCn1c(=O)c2c(O)c([N+](=O)[O-])c(=O)oc2c2cc(Cl)ccc21` [Example 30, 6-Ethyl-9-chloro-5,6-dihydro-3-nitro-2,5-dioxo-2H-pyrano[3,2-c]-quinoline-4-ol], for which the figures for the “% Inhibition against control” value in experiment [1] (0.03 mg/kg), in experiment [1] (0.1 mg/kg) and in experiment [1] (0.3 mg/kg) were 50%, 88% and 100%, respectively.

Regarding `CCn1c(=O)c2c(O)c([N+](=O)[O-])c(=O)oc2c2cc(F)ccc21.[Na]` [Example 31, 6-Ethyl-9-fluoro-5,6-dihydro-3-nitro-2,5-dioxo-2H-pyrano[3,2-c]quinoline-4-ol-sodium salt], the “% Inhibition against control” value in experiment [1] (0.01 mg/kg) is 27%; in experiment [1] (0.03 mg/kg), 60%; in experiment [1] (0.1 mg/kg), 80%; in experiment [1] (0.3 mg/kg), 87%; in experiment [1] (3.0 mg/kg), 100%.

For `CCn1c(=O)c2c(O)c([N+](=O)[O-])c(=O)oc2c2cc(C(F)(F)F)ccc21` [Example 32, 6-Ethyl-5,6-dihydro-3-nitro-2,5-dioxo-9-trifluoromethyl-2H-pyrano[3,2-c]quinoline-4-ol], the “% Inhibition against control” value was 19% in experiment [1] (0.03 mg/kg), 69% in experiment [1] (0.1 mg/kg), 75% in experiment [1] (0.3 mg/kg) and 100% in experiment [1] (3.0 mg/kg).

`CCn1c(=O)c2c(O)c([N+](=O)[O-])c(=O)oc2c2cc(Cl)c(Cl)cc21` [Example 35, 6-Ethyl-8,9-dichloro-5,6-dihydro-3-nitro-2,5-dioxo-2H-pyrano[3,2-c]quinoline-4-ol]: the “% Inhibition against control” value is recorded as 20% in experiment [1] (0.1 mg/kg), 53% in experiment [1] (0.3 mg/kg), 73% in experiment [1] (1.0 mg/kg) and 100% in experiment [1] (30.0 mg/kg).
